The source of these data is US20250281509A1, “SEQUENTIAL HORMONE THERAPY TO IMPROVE SURVIVAL AND ENHANCE RESPONSE TO IMMUNE THERAPY IN MEN WITH PROSTATE CANCER” (The Johns Hopkins University, priority 2021, published 2025).

Several values for one entry are separate records, joined by “and”; a condition that tells them apart may be missing. Equal values may be shown once. Read-outs that look alike come from different tables or passages of the source.

The subject of data set [1] is CRPC. Kind of data set: Post hoc analysis of PSA response to subsequent hormonal therapies post-BAT (pilot study). Format: in vivo, human. The conditions noted are these: for patients with a PSA decline on second line therapy: after return to castrate testosterone levels post-BAT; for Maximum PSA decline upon secondary HT initiation (%): per subject, secondary HT received post-study after return to castrate T-levels post-BAT; for PSA decline upon re-challenge: subjects who had previously progressed on the same agent. How it is done:
As part of the aforementioned pilot study, a post hoc exploratory analysis on the effect of BAT on subsequent hormonal therapies was performed. […] All of the patients had received at least one anti-androgen prior to starting the study, Table 2. PSA response to secondary hormonal therapy after return to castrate T-levels post-BAT.

In data set [2] the test system is CRPC. Kind of data set: RESTORE Phase II study (NCT02090114). Format: in vivo, human. Particulars: re-challenge with the agent patients progressed on before BAT. From the text: The RESTORE study (NCT02090114) was an NIH sponsored Phase II study designed to assess the safety and efficacy of BAT in men (n=30 per cohort) with CRPC progressing on enzalutamide (Cohort A) or abiraterone (Cohort B), FIG. 6A. Shah et al., 2004. The primary endpoint of the first part of the study was to assess PSA response to BAT. Secondary endpoints included objective response, safety, and quality of life. The second part of the study was to determine in BAT could re-sensitize patients to repeat exposure to second line therapy that patients were progressing on prior to receiving BAT. Thus, patients progressing on enzalutamide were re-exposed to enzalutamide after BAT and similarly for abiraterone. Both arms of this study met the primary endpoint. PSA50 Response to BAT was 30% in patient's post-enzalutamide and 18% post-abiraterone, FIG. 6B. Shah et al., 2004. […] Overall duration of response to BAT and duration of response to re-exposure was longer in the post-enzalutamide vs. post-abiraterone cohort. The PSA50 response to re-exposure to enzalutamide was 71% vs. only 21% for patients re-exposed to abiraterone, FIG. 6B. Shah et al., 2004. A third cohort was later added (Cohort C) for men progressing on ADT alone. Overall, 90 men were treated on this study over a 4-year period (2014-2018).

Data set [3] concerns metastatic castration-resistant prostate cancer. The conditions noted are these: cited from earlier work.
The subject of data set [4] is LNCaP. In words: Cell death, trypan blue exclusion assay. Type of data set: cell-based, human. Particulars: ferrostatin-1 in combination with R1881. As to the method: Cells were stained with 0.4% trypan blue (Sigma) and incubated for 2-3 min at room temperature to allow dead cells to take up the blue stain. Cell viability was measured using an automated cell counter, Cellometer, (Nexcelom). Each experiment was repeated at least three times. Dead cells were calculated from subtracting the percentage of viable cells from 100. Mean percentage of dead cells was plotted on histograms.

Data set [5] relates to ferritin. Kind of data set: Ferritin level by western blot. Format: cell-based, human. The conditions noted are these: LNCaP cells, 10 μM with 10 nM R1881. How it is done:
Cell lysates were prepared either in 1× denaturing lysis buffer (Cell Signaling #9803) or non-denaturing lysis buffer (50 mM HEPES pH 7.4, 150 mM NaCl, 5 mM EDTA, 10% glycerol, 1% Nonidet P-40, and supplemented with phosphatase and protease inhibitors). For denaturing gels, lysates were mixed with Laemmli buffer containing β-mercaptoethanol, boiled for 5 mins and stored at −80° C. until use. Native lysates were mixed with native loading buffer (BioRad), and semi-native lysates were mixed with Laemmli buffer without beta-mercaptoethanol and stored at −80° C. without boiling. Native gels were resolved as described previously, Robitaille et al., 2016; denaturing and semi-native gels were resolved on 4-15% precast polyacrylamide gels (BioRad) followed by transfer to PVDF membrane. Membranes were blocked in 5% nonfat milk in wash buffer (Tris-buffered saline+0.1% Tween-20). After blocking, immunoblotting was performed with primary antibodies overnight at 4° C., followed by incubation with HRP-conjugated secondary antibodies for 1 h at room temperature. Blots were analyzed using the chemiluminescence method. Blots were developed using ECL Western blot detection reagent (GE Healthcare) for highly expressed proteins and Super Signal West Femto (Thermo Fisher) reagent for low expression proteins. Each experiment was repeated at least two to three times.
(In general: Immunoblotting shows a protein as a band on a membrane.)

The test system of data set [6] is CRPC. Kind of data set: Pilot study of BAT plus etoposide in men with CRPC. Format: in vivo, human. How it is done:
Based on the preclinical results and potential mechanisms for growth inhibition that include androgen-induced double strand breaks and stabilization of AR preventing relicensing, a pilot study was conducted to evaluate the efficacy and safety of pharmacologic doses of testosterone to produce high dose testosterone levels in conjunction with oral etoposide in chronically castrated men with rising PSA and CRPC, FIG. 4A. Patients who had been continuously castrate for more than one year with minimal metastatic disease burden (≤5 total bone metastases and ≤10 total sites of metastases) and/or rising PSA were eligible, FIG. 4B. To achieve rapid cycling between high dose and near castrate serum testosterone (i.e., BAT) patients received intramuscular injection of 400 mg testosterone cypionate every 28 days. For the first 3 cycles of therapy patients received BAT plus oral etoposide 100 mg po/day days 1-14 of a 28-day cycle. After 3 cycles PSA response and objective response were assessed. Those patients with a PSA that was declining from peak levels and no objective evidence of disease progression or worsening pain were continued on therapy. Given the toxicity associated with etoposide and the lack of clinical response in an earlier trial, Hussain et al., 1994, patients who responding after 3 cycles of testosterone plus etoposide were continued on testosterone alone based on protocol amendment.

In data set [7] the test system is LNCaP/A-xenografts. In words: LNCaP xenografts in castrated mice with testosterone implants. Format: in vivo. The text has this:
FIG. 3A and FIG. 3B show castrated NOG mice inoculated with LNCaP/A-cells were either exposed to BAT therapy (via an implanted testosterone filled capsule that was placed and removed at two-week intervals) or left in a permanently castrate state (diamond versus box). (FIG. 3A) Evaluation of indicated parameters in LNCaP/A-cells growing in castrate mice vs. castrate mice supplemented with subcutaneous testosterone-filled silastic implants; (FIG. 3B) Immunohistochemical staining for AR in harvested LNCaP/A-xenografts growing in castrate vs. castrate+T-pelleted mice. Blue arrows indicate mitotic figures;
A mechanism for growth inhibition by testosterone in CRPC cells has been recently explored. Beer et al., 2014; Litvinov et al., 2006; Vander Griend et al., 2007. These studies document that the increase in AR expression observed in these cells in the low testosterone environment creates a unique therapeutic vulnerability to selectively kill CRPCs. This observation is based on the fact that AR is involved in DNA relicensing and DNA replication AR must degraded each cell cycle for proper relicensing to occur. Overstabilization of the increased levels of AR observed in CRPC with high dose testosterone prevents complete degradation of AR via the proteasome during mitosis. Beer et al., 2014; Litvinov et al., 2006; Vander Griend et al., 2007. […] Beer et al., 2014. […] In xenografts treated with high dose testosterone, however, the Cell Death Index was approximately 3-fold higher. Beer et al., 2014. More strikingly, the percent of cells staining positive for AR in mitosis was approximately 10-fold higher in cells exposed to high dose testosterone vs. castrate only animals, FIG. 3b.

The subject of data set [8] is advanced prostatic carcinoma. The conditions noted are these: cited from earlier work.
Data set [9] relates to early CRPC. Particulars: cited from earlier work.
The conditions of data set [10]: cited from earlier work.
Data set [11] relates to CRPC. The conditions noted are these: cited from earlier work.
In data set [12] the test system is mCPRC. The conditions noted are these: 258 patients previously treated with docetaxel and one or more hormonal therapies; cited from earlier work.

As for `CC(=O)O[C@H]1CC[C@@]2(C)C(=CC[C@@H]3[C@@H]2CC[C@]2(C)C(c4cccnc4)=CC[C@@H]32)C1` [abiraterone, abiraterone acetate], in [1], the “patients with a PSA decline on second line therapy” value (“patients with a PSA decline” for short) is 4/4; the “Maximum PSA decline upon secondary HT initiation (%)” value is −94.2% and −92.7% and −88.1% and −63.8%. Besides, the “patients with >50% PSA decline on second line therapy” value in data set [1] (post-BAT) was “Four of 4”. The “PSA50 response to re-exposure post-BAT” value in data set [2] is on record as 21%. Moreover, in data set [3] (AR-V7-negative patients), the “PFS (median), clinical/radiographic” value was “not reached”; the PSA response rate was 68.0%; the “PSA-PFS (median)” value is reported as “not reached”. Also, in data set [3] (AR-V7-positive patients), the “PFS (median), clinical/radiographic” value is given as 2.3 months; the PSA response rate is recorded as 0%; the “PSA-PFS (median)” value is on record as 1.3 months.

`CC(O)(CS(=O)(=O)c1ccc(F)cc1)C(=O)Nc1ccc(C#N)c(C(F)(F)F)c1` (centres unmarked) [bicalutamide]: in data set [1], the “patients with a PSA decline” value is given as 1/1, the “Maximum PSA decline upon secondary HT initiation (%)” value was −30.8% and the “PSA decline upon re-challenge” value worked out at 30.9%.

Regarding `CCOC(=O)c1ccc(NC2CCCCC2)c(N)c1` [ferrostatin-1], the “SupraT induced cell death” value in data set [4] is reported as “abrogated cell death”.

Turning to `CCN(CCO)CCCC(C)Nc1ccnc2cc(Cl)ccc12` (centres unmarked) [hydroxychloroquine], the “degradation of ferritin by SupraT” value in data set [5] is “prevented the degradation of ferritin by SupraT”.

`CC1(C)NC(=O)N(c2ccc([N+](=O)[O-])c(C(F)(F)F)c2)C1=O` [nilutamide]: in data set [1], the “patients with a PSA decline” value is 1/1, the “Maximum PSA decline upon secondary HT initiation (%)” value was −44.3% and the “PSA decline upon re-challenge” value was 44.3%.

For the compound `C[C@]12CC[C@H]3[C@@H](CCC4=CC(=O)CC[C@@]43C)[C@@H]1CC[C@@H]2OC(=O)CCC1CCCC1` [testosterone cypionate], the “patients with a decline in PSA from baseline value” in [6] (400 mg IM every 28 days, oral etoposide in first 3 cycles) was “Seven of fourteen”. Also, the “patients developing new bone metastases” value in [6] (completing 3 months of therapy) is recorded as “None of the 14 patients”. For the same compound, the “median time to PSA progression” value in data set [6] (seven patients with PSA decline, range 95 to 454 days) is on record as 221 days. Further, in data set [6] (ten evaluable subjects), the “complete response (CR)” value amounted to 10%; the “partial responses (PRs)” value came out at 40%; the “progressive disease (PD), RECIST-evaluable soft tissue metastases” value stood at 20%. Moreover, the stable disease in data set [6] (ten evaluable subjects, median follow up 91 days) turned out to be 30%.

`C[C@]12CC[C@H]3[C@@H](CCC4=CC(=O)CC[C@@]43C)[C@@H]1CC[C@@H]2O` [testosterone]: in data set [7] (high dose testosterone vs castrate only), the “Cell Death Index, increase vs castrate” value was “approximately 3 fold”. For the same compound, the “percent of cells staining positive for AR in mitosis, increase vs castrate” value in [7] (high dose testosterone vs castrate only animals) is on record as “approximately 10 fold”. In addition, the xenograft growth result in [7] (testosterone implants, high dose serum T-levels vs castrate only) was “significant growth inhibition”. Also, in data set [8] (long-term castrate group, testosterone for at least one month), the “patients with subjective improvement” value is recorded as 4 of 5. Also, the “men with acid phosphatase decline” value in data set [8] (longer course of testosterone) is 2/5.

Regarding `C[C@]12CC[C@H]3[C@@H](CCC4=CC(=O)CC[C@@]43C)[C@@H]1CC[C@@H]2O` [transdermal testosterone, testosterone], the “patients with a decrease in PSA” value in [9] (15 men, 2.5-7.5 mg/day) is on record as 20%. In addition, the “largest decrease in PSA” value in data set [9] (in vivo) is on record as 43%. Also, the toxicities result in data set [9] (in vivo) is “no grade 3 or 4 toxicities were observed with the exception of one person who was taken off study at week 53 for grade 4 cardiac toxicity”; in data set [11] (7.5 mg/day, 12 patients), “no grade 3 or 4 toxicities and no pain flares”. Also, the “median concentration of testosterone” value is on record as 305 ng/dL in data set [10] (2.5 mg/day transdermal), 308 ng/dL in data set [10] (5.0 mg/day transdermal) and 297 ng/dL in data set [10] (7.5 mg/day transdermal). Further, in data set [11] (7.5 mg/day), the objective responses entry was “No objective responses”. For the same compound, the “patients with >50% PSA decline” value in [11] (of 12 patients) was “one”. Besides, the “patients with at least 20% PSA declines” value in [11] (of 12 patients) was “Four”.

Turning to Pembrolizumab: anti-PD1/PDL1 antibody, the Objective response in [12] is under 5%.
